The first series concerns Plasmodium falciparum. The experiment in a line: Antiplasmodial activity against CQ-resistant Plasmodium falciparum W2 assessed as inhibition of parasite growth measured after 48 hrs by SYBR Green 1 dye based fluorescence assay. The class given is functional, organism-based. To be noted: W2, 48 h.
For `NCCCCCCCCCCCCNC[C@H](O)c1cc(C(F)(F)F)nc2c(C(F)(F)F)cccc12`, the concentration for half-maximal inhibition (IC50) (as a rule, the concentration at which inhibition is half-maximal) is 379 nM.

For the molecule `O[C@@H](CNCCN1CCN(C[C@H](O)c2cc(C(F)(F)F)nc3c(C(F)(F)F)cccc23)CC1)c1cc(C(F)(F)F)nc2c(C(F)(F)F)cccc12`, the IC50 worked out at 182 nM.

Regarding `NCCNC[C@H](O)c1cc(C(F)(F)F)nc2c(C(F)(F)F)cccc12`, the IC50 was above 1000 nM.

`OC[C@@H](NC[C@@H](O)c1cc(C(F)(F)F)nc2c(C(F)(F)F)cccc12)c1ccccc1`: the IC50 came to 9.8 nM.

On to `O[C@H](CNCCN1CCN(C[C@@H](O)c2cc(C(F)(F)F)nc3c(C(F)(F)F)cccc23)CC1)c1cc(C(F)(F)F)nc2c(C(F)(F)F)cccc12`, for which the IC50 came to 61.8 nM.

On to `C[C@@H](CO)NC[C@H](O)c1cc(C(F)(F)F)nc2c(C(F)(F)F)cccc12` (single isomer, unassigned), for which the half-inhibitory concentration (IC50) worked out at 51.7 nM.

The next series concerns Plasmodium falciparum. Nature of the series: Selectivity index, ratio of IC50 for antiplasmodial activity against CQ-susceptible Plasmodium falciparum 3D7 to IC50 for antiplasmodial activity CQ-resistant Plasmodium falciparum W2 by HRP2-ELISA. The class given is functional.
Settings: not given
(ELISA stands for enzyme-linked immunosorbent assay.)
With `C[C@H]1[C@@H](O)O[C@@H]2O[C@@]3(C)CC[C@H]4[C@H](C)CC[C@@H]1[C@@]24OO3` [ARTENIMOL], the Ratio IC50 was 0.9.

Consider `CCNCc1cc(Nc2ccnc3cc(Cl)ccc23)ccc1O` [DESETHYL AMODIAQUINE], for which the Ratio IC50 amounted to 0.25.

On to `C=C[C@H]1CN2CC[C@H]1C[C@H]2[C@H](O)c1ccnc2ccc(OC)cc12` [QUININE], for which the Ratio IC50 was determined as 0.2.

For a further series, the system named is Plasmodium falciparum. The experiment in a line: Antiplasmodial activity against CQ-susceptible Plasmodium falciparum 3D7 assessed as inhibition of parasite growth measured after 48 hrs by SYBR Green 1 dye based fluorescence assay. The class given is functional, organism-based. To be noted: 3D7, 48 h.
Turning to `C[C@@H](CO)NC[C@@H](O)c1cc(C(F)(F)F)nc2c(C(F)(F)F)cccc12`, the half-inhibitory concentration (IC50) came out at 166 nM.

Turning to `O[C@@H](CN1CCNCC1)c1cc(C(F)(F)F)nc2c(C(F)(F)F)cccc12`, the IC50 is above 1000 nM.

Take `OCCN1CCN(C[C@@H](O)c2cc(C(F)(F)F)nc3c(C(F)(F)F)cccc23)CC1`: the IC50 is above 1000 nM.

As for `O[C@H](CN1CCN(CCN2CCN(C[C@@H](O)c3cc(C(F)(F)F)nc4c(C(F)(F)F)cccc34)CC2)CC1)c1cc(C(F)(F)F)nc2c(C(F)(F)F)cccc12`, the IC50 is 726 nM.

In the case of `OCCN1CCN(C[C@H](O)c2cc(C(F)(F)F)nc3c(C(F)(F)F)cccc23)CC1`, the IC50 is above 1000 nM.

In the case of `O[C@@H](CN1CCN(Cc2cccc3ccccc23)CC1)c1cc(C(F)(F)F)nc2c(C(F)(F)F)cccc12`, the IC50 is above 1000 nM.

`O[C@H](CN1CCNCC1)c1cc(C(F)(F)F)nc2c(C(F)(F)F)cccc12`: the IC50 was above 1000 nM.

`OCCNC[C@H](O)c1cc(C(F)(F)F)nc2c(C(F)(F)F)cccc12`: the half-maximal inhibitory concentration (IC50) was above 1000 nM.

On to `NCCCCCCCCCCCCNC[C@H](O)c1cc(C(F)(F)F)nc2c(C(F)(F)F)cccc12`, for which the IC50 came to 176 nM.

For `OCCNC[C@@H](O)c1cc(C(F)(F)F)nc2c(C(F)(F)F)cccc12`, the IC50 is above 1000 nM.

Regarding `O[C@H](CN1CCN(Cc2cccc3ccccc23)CC1)c1cc(C(F)(F)F)nc2c(C(F)(F)F)cccc12`, the 50% inhibitory concentration (IC50) was above 1000 nM.

As for `O[C@@H](CNCCN1CCN(C[C@H](O)c2cc(C(F)(F)F)nc3c(C(F)(F)F)cccc23)CC1)c1cc(C(F)(F)F)nc2c(C(F)(F)F)cccc12`, the half-inhibitory concentration (IC50) was found to be 453 nM.

On to `NCCNC[C@H](O)c1cc(C(F)(F)F)nc2c(C(F)(F)F)cccc12`, for which the IC50 was above 1000 nM.

With `OCCCC(CCCO)(CCCO)NC[C@@H](O)c1cc(C(F)(F)F)nc2c(C(F)(F)F)cccc12`, the half-inhibitory concentration (IC50) was above 1000 nM.

On to `OC[C@@H](NC[C@@H](O)c1cc(C(F)(F)F)nc2c(C(F)(F)F)cccc12)c1ccccc1`, for which the IC50 stood at 94.4 nM.

With `O[C@H](CNCCN1CCN(C[C@@H](O)c2cc(C(F)(F)F)nc3c(C(F)(F)F)cccc23)CC1)c1cc(C(F)(F)F)nc2c(C(F)(F)F)cccc12`, the IC50 worked out at 361 nM.

Turning to `OCCCC(CCCO)(CCCO)NC[C@H](O)c1cc(C(F)(F)F)nc2c(C(F)(F)F)cccc12`, the IC50 was above 1000 nM.

Take `C[C@@H](CO)NC[C@H](O)c1cc(C(F)(F)F)nc2c(C(F)(F)F)cccc12` (single isomer, unassigned): the IC50 came out at 138 nM.

A further series concerns Plasmodium falciparum. Nature of the series: Selectivity index, ratio of IC50 for antiplasmodial activity against CQ-susceptible Plasmodium falciparum 3D7 to IC50 for antiplasmodial activity against CQ-resistant Plasmodium falciparum W2 by SYBR Green 1 dye based fluorescence assay. The class given is functional.
Settings: not given
Regarding `NCCCCCCCCCCCCNC[C@H](O)c1cc(C(F)(F)F)nc2c(C(F)(F)F)cccc12`, the Ratio IC50 was found to be 0.5.

Consider `O[C@@H](CNCCN1CCN(C[C@H](O)c2cc(C(F)(F)F)nc3c(C(F)(F)F)cccc23)CC1)c1cc(C(F)(F)F)nc2c(C(F)(F)F)cccc12`, for which the Ratio IC50 is 2.5.

As for `OC[C@@H](NC[C@@H](O)c1cc(C(F)(F)F)nc2c(C(F)(F)F)cccc12)c1ccccc1`, the Ratio IC50 was determined as 9.6.

On to `O[C@H](CNCCN1CCN(C[C@@H](O)c2cc(C(F)(F)F)nc3c(C(F)(F)F)cccc23)CC1)c1cc(C(F)(F)F)nc2c(C(F)(F)F)cccc12`, for which the Ratio IC50 is 5.8.

Regarding `C[C@@H](CO)NC[C@H](O)c1cc(C(F)(F)F)nc2c(C(F)(F)F)cccc12` (single isomer, unassigned), the Ratio IC50 is 2.7.

System in a further series: not listed separately
The experiment in a line: Cytotoxicity against Chinese hamster CHO cells assessed as reduction in cell viability incubated for 24 hrs by MTT assay. The class given is toxicity, cell-based, Cricetulus griseus.
Settings: not given
A general note: Tetrazolium assays rely on reduction of a dye to a coloured formazan, in cell work by metabolically active cells.
Take `COc1cccc2c1C(=O)c1c(O)c3c(c(O)c1C2=O)C[C@@](O)(C(=O)CO)C[C@@H]3O[C@H]1C[C@H](N)[C@H](O)[C@H](C)O1` [DOXORUBICIN]: the IC50 at 24 h came out at 3600 nM.

For a further series, the system named is Plasmodium falciparum. Nature of the series: Antiplasmodial activity CQ-resistant Plasmodium falciparum W2 infected in human erythrocytes assessed as inhibition of parasite growth measured after 72 hrs by HRP2-ELISA. The class given is functional, organism-based. To be noted: W2, Erythrocyte.
For `C[C@H]1[C@@H](O)O[C@@H]2O[C@@]3(C)CC[C@H]4[C@H](C)CC[C@@H]1[C@@]24OO3` [ARTENIMOL], the IC50 came out at 3 nM.

For the molecule `CCNCc1cc(Nc2ccnc3cc(Cl)ccc23)ccc1O` [DESETHYL AMODIAQUINE], the IC50 came out at 100 nM.

For the molecule `C=C[C@H]1CN2CC[C@H]1C[C@H]2[C@H](O)c1ccnc2ccc(OC)cc12` [QUININE], the half-maximal inhibitory concentration (IC50) was determined as 474 nM.

System in another series: not listed separately
The experiment in a line: Cytotoxicity against human THP-1 cells assessed as reduction in cell viability incubated for 72 hrs by MTT assay.
Settings: not given
The class given is toxicity, cell-based.
Take `COc1cccc2c1C(=O)c1c(O)c3c(c(O)c1C2=O)C[C@@](O)(C(=O)CO)C[C@@H]3O[C@H]1C[C@H](N)[C@H](O)[C@H](C)O1` [DOXORUBICIN]: the 50% inhibitory concentration (IC50) at 72 h was 20 nM.

Another series relates to Plasmodium falciparum. The experiment in a line: Antiplasmodial activity against CQ-susceptible Plasmodium falciparum 3D7 infected in human erythrocytes assessed as inhibition of parasite growth measured after 72 hrs by HRP2-ELISA. The class given is functional, organism-based. To be noted: 3D7, Erythrocyte.
In the case of `C[C@H]1[C@@H](O)O[C@@H]2O[C@@]3(C)CC[C@H]4[C@H](C)CC[C@@H]1[C@@]24OO3` [ARTENIMOL], the IC50 turned out to be 2.8 nM.

Take `CCNCc1cc(Nc2ccnc3cc(Cl)ccc23)ccc1O` [DESETHYL AMODIAQUINE]: the IC50 is 24.7 nM.

As for `C=C[C@H]1CN2CC[C@H]1C[C@H]2[C@H](O)c1ccnc2ccc(OC)cc12` [QUININE], the half-maximal inhibitory concentration (IC50) was found to be 74.2 nM.
